# Data: ChEMBL document CHEMBL1201861, “Genomics of Drug Sensitity in Cancer screening data, Wellcome Trust Sanger Institute”
# What was measured:
# Test in all cases: cells
# [1] = test system: EKVX; type: functional, cell-based, Homo sapiens; details: Homo sapiens, EKVX;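 note: growth inhibition of human EKVX cells, read out with a cell viability assay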
# Description: SANGER: Inhibition of human EKVX cell growth in a cell viability assay.
# [2] = test system: NCI-H1650; type: functional, cell-based, Homo sapiens; details: Homo sapiens, NCI-H1650;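 note: growth inhibition of human NCI-H1650 cells measured by a cell viability assay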
# Description: SANGER: Inhibition of human NCI-H1650 cell growth in a cell viability assay.
# [3] = test system: SH-4; type: functional, cell-based; details: Homo sapiens;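 note: growth inhibition of SH-4 cells, read out with a cell viability assay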
# Description: SANGER: Inhibition of human SH-4 cell growth in a cell viability assay.
# [4] = test system: LB831-BLC; type: functional, cell-based, Homo sapiens; details: Homo sapiens, LB831-BLC;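 note: growth inhibition of LB831-BLC cells, read out with a cell viability assay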
# Description: SANGER: Inhibition of human LB831-BLC cell growth in a cell viability assay.
# [5] = test system: RXF 393; type: functional, cell-based, Homo sapiens; details: Homo sapiens, RXF 393;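 note: growth inhibition of human RXF 393 cells, read out with a cell viability assay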
# Description: SANGER: Inhibition of human RXF393 cell growth in a cell viability assay.
# [6] = test system: GOTO; type: functional, cell-based, Homo sapiens; details: Homo sapiens, GOTO;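 note: growth inhibition of GOTO cells, read out by a cell viability assay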
# Description: SANGER: Inhibition of human GOTO cell growth in a cell viability assay.
# [7] = test system: MN-60; type: functional, cell-based, Homo sapiens; details: Homo sapiens, MN-60;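 note: growth inhibition of the MN-60 cell line, determined with a cell viability assay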
# Description: SANGER: Inhibition of human MN-60 cell growth in a cell viability assay.
# [8] = test system: KGN; type: functional, cell-based, Homo sapiens; details: Homo sapiens, KGN;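 note: growth inhibition of KGN cells, read out with a cell viability assay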
# Description: SANGER: Inhibition of human KGN cell growth in a cell viability assay.
# [9] = test system: HL-60; type: functional, cell-based, Homo sapiens; details: Homo sapiens, HL-60;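 note: growth inhibition of human HL-60 cells, read out with a cell viability assay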
# Description: SANGER: Inhibition of human HL-60 cell growth in a cell viability assay.
# [10] = test system: SF-539; type: functional, cell-based, Homo sapiens; details: Homo sapiens, SF-539;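 note: Read-out is a cell viability assay, with IC50 reflecting inhibition of cell growth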
# Description: SANGER: Inhibition of human SF539 cell growth in a cell viability assay.
# [11] = test system: TE-11; type: functional, cell-based; details: Homo sapiens;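 note: growth inhibition of human TE-11 cells, read out by a cell viability assay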
# Description: SANGER: Inhibition of human TE-11 cell growth in a cell viability assay.
# [12] = test system: ONS-76; type: functional, cell-based, Homo sapiens; details: Homo sapiens, ONS-76;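 note: growth inhibition of human ONS-76 cells, read out with a cell viability assay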
# Description: SANGER: Inhibition of human ONS-76 cell growth in a cell viability assay.
# [13] = test system: RCC10RGB; type: functional, cell-based, Homo sapiens; details: Homo sapiens, RCC10RGB;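 note: growth inhibition of human RCC10RGB cells, read out by a cell viability assay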
# Description: SANGER: Inhibition of human RCC10RGB cell growth in a cell viability assay.
# [14] = test system: SW982; type: functional, cell-based; details: Homo sapiens;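 note: growth inhibition of SW982 cells, read out with a cell viability assay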
# Description: SANGER: Inhibition of human SW982 cell growth in a cell viability assay.
# [15] = test system: MZ1-PC; type: functional, cell-based, Homo sapiens; details: Homo sapiens, MZ1-PC;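 note: cell viability assay measuring growth inhibition of human MZ1-PC cells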
# Description: SANGER: Inhibition of human MZ1-PC cell growth in a cell viability assay.
# [16] = test system: DB; type: functional, cell-based, Homo sapiens; details: Homo sapiens, DB
# Description: SANGER: Inhibition of human DB cell growth in a cell viability assay.
# [17] = test system: KURAMOCHI; type: functional, cell-based, Homo sapiens; details: Homo sapiens, KURAMOCHI;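 note: growth inhibition of KURAMOCHI cells, read out with a cell viability assay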
# Description: SANGER: Inhibition of human KURAMOCHI cell growth in a cell viability assay.
# [18] = test system: KALS-1; type: functional, cell-based, Homo sapiens; details: Homo sapiens, KALS-1; read-out: IC50;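 note: growth inhibition of KALS-1 cells, determined with a cell viability assay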
# Description: SANGER: Inhibition of human KALS-1 cell growth in a cell viability assay.
# [19] = test system: EM-2; type: functional, cell-based, Homo sapiens; details: Homo sapiens, EM-2;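 note: growth inhibition of EM-2 cells, read out with a cell viability assay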
# Description: SANGER: Inhibition of human EM-2 cell growth in a cell viability assay.
# [20] = test system: CTB-1; type: functional, cell-based, Homo sapiens; details: Homo sapiens, CTB-1
# Description: SANGER: Inhibition of human CTB-1 cell growth in a cell viability assay.
# [21] = test system: SK-MEL-1; type: functional, cell-based, Homo sapiens; details: Homo sapiens, SK-MEL-1;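 note: growth inhibition of human SK-MEL-1 cells, read out by a cell viability assay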
# Description: SANGER: Inhibition of human SK-MEL-1 cell growth in a cell viability assay.
# [22] = test system: KS-1; type: functional, cell-based; details: Homo sapiens;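 note: growth inhibition of KS-1 cells, read out with a cell viability assay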
# Description: SANGER: Inhibition of human KS-1 cell growth in a cell viability assay.
# [23] = test system: TGW; type: functional, cell-based, Homo sapiens; details: Homo sapiens, TGW;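 note: growth inhibition of human TGW cells, read out with a cell viability assay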
# Description: SANGER: Inhibition of human TGW cell growth in a cell viability assay.
# [24] = test system: K562; type: functional, cell-based, Homo sapiens; details: Homo sapiens, K562
# Description: SANGER: Inhibition of human K-562 cell growth in a cell viability assay.
# [25] = test system: IST-MEL1; type: functional, cell-based, Homo sapiens; details: Homo sapiens, IST-MEL1;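 note: growth inhibition of the cell line, read out with a cell viability assay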
# Description: SANGER: Inhibition of human IST-MEL1 cell growth in a cell viability assay.
# [26] = test system: JVM-2; type: functional, cell-based, Homo sapiens; details: Homo sapiens, JVM-2;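 note: growth inhibition of JVM-2 cells determined by a cell viability assay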
# Description: SANGER: Inhibition of human JVM-2 cell growth in a cell viability assay.
# [27] = test system: ES4; type: functional, cell-based, Homo sapiens; details: Homo sapiens, ES4;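 note: growth inhibition of human ES4 cells, read out by a cell viability assay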
# Description: SANGER: Inhibition of human ES4 cell growth in a cell viability assay.
# [28] = test system: NCI-H2126; type: functional, cell-based, Homo sapiens; details: Homo sapiens, NCI-H2126;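 note: growth inhibition of the cancer cell line, determined with a cell viability readout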
# Description: SANGER: Inhibition of human NCI-H2126 cell growth in a cell viability assay.
# [29] = test system: RPMI-8866; type: functional, cell-based, Homo sapiens; details: Homo sapiens, RPMI-8866
# Description: SANGER: Inhibition of human RPMI-8866 cell growth in a cell viability assay.
# [30] = test system: no-10; type: functional, cell-based, Homo sapiens; details: Homo sapiens;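 note: growth inhibition of no-10 cells, read out with a cell viability assay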
# Description: SANGER: Inhibition of human no-10 cell growth in a cell viability assay.
# [31] = test system: ES5; type: functional, cell-based, Homo sapiens; details: Homo sapiens, ES5;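 note: growth inhibition of human ES5 cells, read out by a cell viability assay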
# Description: SANGER: Inhibition of human ES5 cell growth in a cell viability assay.
# [32] = test system: KNS-42; type: functional, cell-based; details: Homo sapiens;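 note: growth inhibition of KNS-42 cells, read out with a cell viability assay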
# Description: SANGER: Inhibition of human KNS-42 cell growth in a cell viability assay.
# [33] = test system: NOS-1; type: functional, cell-based, Homo sapiens; details: Homo sapiens, NOS-1;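 note: growth inhibition of the human NOS-1 cell line, read out with a cell viability assay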
# Description: SANGER: Inhibition of human NOS-1 cell growth in a cell viability assay.
# [34] = test system: Mo; type: functional, cell-based, Homo sapiens; details: Homo sapiens, Mo
# Description: SANGER: Inhibition of human Mo-T cell growth in a cell viability assay.
# [35] = test system: EW-3; type: functional, cell-based, Homo sapiens; details: Homo sapiens, EW-3;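 note: cell viability assay read-out, IC50 reflects inhibition of growth of the EW-3 cells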
# Description: SANGER: Inhibition of human EW-3 cell growth in a cell viability assay.
# [36] = test system: MC116; type: functional, cell-based, Homo sapiens; details: Homo sapiens, MC116;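 note: growth inhibition of MC116 cells, read out with a cell viability assay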
# Description: SANGER: Inhibition of human MC116 cell growth in a cell viability assay.
# [37] = test system: 697; type: functional, cell-based, Homo sapiens; details: Homo sapiens
# Description: SANGER: Inhibition of human 697 cell growth in a cell viability assay.
# [38] = test system: MSTO-211H; type: functional, cell-based, Homo sapiens; details: Homo sapiens, MSTO-211H
# Description: SANGER: Inhibition of human MSTO-211H cell growth in a cell viability assay.
# [39] = test system: ETK-1; type: functional, cell-based, Homo sapiens; details: Homo sapiens, ETK-1;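 note: growth inhibition of human ETK-1 cells, read out with a cell viability assay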
# Description: SANGER: Inhibition of human ETK-1 cell growth in a cell viability assay.
# [40] = test system: KU812 cell line; type: functional, cell-based, Homo sapiens; details: Homo sapiens, KU812;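 note: growth inhibition of KU812 cells, read out with a cell viability assay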
# Description: SANGER: Inhibition of human KU812 cell growth in a cell viability assay.
# [41] = test system: GI-ME-N; type: functional, cell-based, Homo sapiens; details: Homo sapiens, GI-ME-N;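 note: growth inhibition of human GI-ME-N cells, read out with a cell viability assay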
# Description: SANGER: Inhibition of human GI-ME-N cell growth in a cell viability assay.
# [42] = test system: TGBC24TKB; type: functional, cell-based; details: Homo sapiens;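 note: growth inhibition of human TGBC24TKB cells, read out with a cell viability assay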
# Description: SANGER: Inhibition of human TGBC24TKB cell growth in a cell viability assay.
# [43] = test system: HT-144; type: functional, cell-based, Homo sapiens; details: Homo sapiens, HT-144
# Description: SANGER: Inhibition of human HT-144 cell growth in a cell viability assay.
# [44] = test system: VA-ES-BJ; type: functional, cell-based, Homo sapiens; details: Homo sapiens, VA-ES-BJ;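 note: growth inhibition of the VA-ES-BJ cell line, read out by a cell viability assay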
# Description: SANGER: Inhibition of human VA-ES-BJ cell growth in a cell viability assay.
# [45] = test system: NCI-H446; type: functional, cell-based, Homo sapiens; details: Homo sapiens, NCI-H446;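 note: growth inhibition of NCI-H446 cells determined by a cell viability assay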
# Description: SANGER: Inhibition of human NCI-H446 cell growth in a cell viability assay.
# [46] = test system: TGBC1TKB; type: functional, cell-based, Homo sapiens; details: Homo sapiens, TGBC1TKB;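 note: growth inhibition of TGBC1TKB cells, read out by a cell viability assay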
# Description: SANGER: Inhibition of human TGBC1TKB cell growth in a cell viability assay.
# [47] = test system: KP-N-YS; type: functional, cell-based, Homo sapiens; details: Homo sapiens, KP-N-YS;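 note: cell viability assay measuring inhibition of cell line growth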
# Description: SANGER: Inhibition of human KP-N-YS cell growth in a cell viability assay.
# [48] = test system: BB49-HNC; type: functional, cell-based, Homo sapiens; details: Homo sapiens, BB49-HNC;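 note: cell viability assay read-out, reported as inhibition of BB49-HNC cell growth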
# Description: SANGER: Inhibition of human BB49-HNC cell growth in a cell viability assay.
# [49] = test system: SCC-15; type: functional, cell-based, Homo sapiens; details: Homo sapiens, SCC-15;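 note: growth inhibition of SCC-15 cells, read out with a cell viability assay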
# Description: SANGER: Inhibition of human SCC-15 cell growth in a cell viability assay.
# [50] = test system: HCC2218; type: functional, cell-based, Homo sapiens; details: Homo sapiens, HCC2218;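 note: cell viability assay read-out, with IC50 given as the concentration that inhibits growth of the cell line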
# Description: SANGER: Inhibition of human HCC2218 cell growth in a cell viability assay.
# [51] = test system: LU-139; type: functional, cell-based, Homo sapiens; details: Homo sapiens, LU-139
# Description: SANGER: Inhibition of human LU-139 cell growth in a cell viability assay.
smiles,measurement,setting,value
C/C(=C\c1csc(C)n1)[C@@H]1C[C@@H]2O[C@]2(C)CCC[C@H](C)[C@H](O)[C@@H](C)C(=O)C(C)(C)[C@@H](O)CC(=O)O1 [PATUPILONE],IC50,[1],> 32 nM
same,IC50,[2],9.54 nM
same,IC50,[3],7.73 nM
same,IC50,[4],6.03 nM
same,IC50,[5],3.41 nM
same,IC50,[6],> 32 nM
same,IC50,[7],> 32 nM
same,IC50,[8],0.617 nM
same,IC50,[9],5 nM
same,IC50,[10],2.27 nM
same,IC50,[11],1.2 nM
same,IC50,[12],4.1 nM
same,IC50,[13],19.7 nM
same,IC50,[14],0.999 nM
same,IC50,[15],0.607 nM
same,IC50,[16],7.11 nM
same,IC50,[17],6.05 nM
same,IC50,[18],3.19 nM
same,IC50,[19],> 32 nM
same,IC50,[20],8.31 nM
same,IC50,[21],> 32 nM
same,IC50,[22],1.76 nM
same,IC50,[23],13.5 nM
same,IC50,[24],6.89 nM
same,IC50,[25],4.06 nM
same,IC50,[26],> 32 nM
same,IC50,[27],0.739 nM
same,IC50,[28],15.6 nM
same,IC50,[29],19.8 nM
same,IC50,[30],5.56 nM
same,IC50,[31],> 32 nM
same,IC50,[32],3.91 nM
same,IC50,[33],2.72 nM
same,IC50,[34],> 32 nM
same,IC50,[35],> 32 nM
same,IC50,[36],3.86 nM
same,IC50,[37],1.78 nM
same,IC50,[38],> 32 nM
same,IC50,[39],0.979 nM
same,IC50,[40],3.45 nM
same,IC50,[41],6.08 nM
same,IC50,[42],2.75 nM
same,IC50,[43],1.72 nM
same,IC50,[44],4.35 nM
same,IC50,[45],21.4 nM
same,IC50,[46],> 32 nM
same,IC50,[47],3.93 nM
same,IC50,[48],> 32 nM
same,IC50,[49],5.98 nM
same,IC50,[50],30.8 nM
same,IC50,[51],> 32 nM
NC(=O)c1cccc(-c2cc(Nc3ccc(OC(F)(F)F)cc3)ncn2)c1,IC50,[1],> 1280 nM
same,IC50,[2],> 1280 nM
same,IC50,[3],> 1280 nM
same,IC50,[4],> 1280 nM
same,IC50,[5],> 1280 nM
same,IC50,[6],> 1280 nM
same,IC50,[7],> 1280 nM
same,IC50,[8],> 1280 nM
same,IC50,[9],> 1280 nM
same,IC50,[10],> 1280 nM
same,IC50,[11],> 1280 nM
same,IC50,[12],> 1280 nM
same,IC50,[13],> 1280 nM
same,IC50,[14],> 1280 nM
same,IC50,[15],> 1280 nM
same,IC50,[16],> 1280 nM
same,IC50,[17],> 1280 nM
same,IC50,[18],> 1280 nM
same,IC50,[19],235 nM
same,IC50,[20],> 1280 nM
same,IC50,[21],> 1280 nM
same,IC50,[22],> 1280 nM
same,IC50,[23],> 1280 nM
same,IC50,[24],361 nM
same,IC50,[25],> 1280 nM
same,IC50,[26],> 1280 nM
same,IC50,[27],> 1280 nM
same,IC50,[28],> 1280 nM
same,IC50,[29],> 1280 nM
same,IC50,[30],> 1280 nM
same,IC50,[31],> 1280 nM
same,IC50,[32],> 1280 nM
same,IC50,[33],571 nM
same,IC50,[34],> 1280 nM
same,IC50,[35],> 1280 nM
same,IC50,[36],> 1280 nM
same,IC50,[37],> 1280 nM
same,IC50,[38],> 1280 nM
same,IC50,[39],> 1280 nM
same,IC50,[40],> 1280 nM
same,IC50,[41],> 1280 nM
same,IC50,[42],> 1280 nM
same,IC50,[43],> 1280 nM
same,IC50,[44],> 1280 nM
same,IC50,[45],> 1280 nM
same,IC50,[46],> 1280 nM
same,IC50,[47],> 1280 nM
same,IC50,[48],> 1280 nM
same,IC50,[49],> 1280 nM
same,IC50,[50],> 1280 nM
same,IC50,[51],> 1280 nM
COC(=O)[C@H](CCSC)NC(=O)c1ccc(NC[C@@H](N)CS)cc1-c1ccccc1,IC50,[1],> 1020 nM
same,IC50,[2],> 1020 nM
same,IC50,[3],> 1020 nM
same,IC50,[4],> 1020 nM
same,IC50,[5],> 1020 nM
same,IC50,[6],> 1020 nM
same,IC50,[7],> 1020 nM
same,IC50,[8],> 1020 nM
same,IC50,[9],> 1020 nM
same,IC50,[10],> 1020 nM
same,IC50,[11],> 1020 nM
same,IC50,[12],838 nM
same,IC50,[13],> 1020 nM
same,IC50,[14],> 1020 nM
same,IC50,[15],> 1020 nM
same,IC50,[16],> 1020 nM
same,IC50,[17],> 1020 nM
same,IC50,[18],> 1020 nM
same,IC50,[19],> 1020 nM
same,IC50,[20],> 1020 nM
same,IC50,[21],> 1020 nM
same,IC50,[22],> 1020 nM
same,IC50,[23],> 1020 nM
same,IC50,[24],> 1020 nM
same,IC50,[25],> 1020 nM
same,IC50,[26],> 1020 nM
same,IC50,[27],> 1020 nM
same,IC50,[28],> 1020 nM
same,IC50,[29],> 1020 nM
same,IC50,[30],> 1020 nM
same,IC50,[31],> 1020 nM
same,IC50,[32],> 1020 nM
same,IC50,[33],> 1020 nM
same,IC50,[34],> 1020 nM
same,IC50,[35],> 1020 nM
same,IC50,[36],> 1020 nM
same,IC50,[37],> 1020 nM
same,IC50,[38],> 1020 nM
same,IC50,[39],> 1020 nM
same,IC50,[40],> 1020 nM
same,IC50,[41],> 1020 nM
same,IC50,[42],> 1020 nM
same,IC50,[43],> 1020 nM
same,IC50,[44],> 1020 nM
same,IC50,[45],> 1020 nM
same,IC50,[46],> 1020 nM
same,IC50,[47],> 1020 nM
same,IC50,[48],> 1020 nM
same,IC50,[49],> 1020 nM
same,IC50,[50],> 1020 nM
same,IC50,[51],> 1020 nM
